Assay results taken from US9315847B2, “Automated transient image cytometry” (priority 2009, dated 2016).

System: NRVMs
Test: Toxicity of the nuclear label to NRVMs during dye loading
Assay type: cell-based, rat
Conditions: 200 ng/ml in loading solution, 25 minutes
Method: Sensitivity to intracellular calcium kinetics is a desirable goal for automated calcium transient image cytometry because it is desirable to distinguish healthy contractile ESCMs from background non-contractile stem cells. […] The cells were maintained 48 to 72 hrs prior to scanning. On the day of scanning, the cells were incubated with a 3 μM solution of the acetyoxymethylester form of an intracellular calcium indicator (either Fluo-4 AM or Fluo-3 AM) in the base media for 25 minutes. The plasma membrane permeable to the acetoxymethylester forms of Fluo-3 and Fluo-4, which are modified intracellularly by esterases to an impermeable form. The loading solution was also supplemented with 200 ng/ml Hoechst 33342 to label DNA within the nuclei. This concentration of Hoechst provides adequate label of the nuclei and was non-toxic under these conditions. Thus, the labeling procedure introduced a green-fluorescence channel fluorescent calcium indicator into the cytoplasm of the NRVMs (Fluo-4) and a blue-fluorescence channel nuclear stain (Hoechst). The nuclear channel was used for autofocus at each well; additionally, images obtained of the nuclei provided information regarding cellular position that was helpful in assigning boundaries between cells in the segmentation procedure applied to the green-channel images. […]

CCOc1ccc(-c2nc3ccc(-c4nc5ccc(N6CCN(C)CC6)cc5[nH]4)cc3[nH]2)cc1 [Hoechst 33342]
toxicity of the nuclear label under loading conditions: non-toxic
